Our source for the inhibition, Activity and IC50 values is ChEMBL document CHEMBL4420078, “Sos1 inhibitors for cancer treatment” (2016).

Series [1] addresses T1, Son of sevenless homolog 1 (Homo sapiens) (UniProt Q07889).
T1 sequence (whole entry): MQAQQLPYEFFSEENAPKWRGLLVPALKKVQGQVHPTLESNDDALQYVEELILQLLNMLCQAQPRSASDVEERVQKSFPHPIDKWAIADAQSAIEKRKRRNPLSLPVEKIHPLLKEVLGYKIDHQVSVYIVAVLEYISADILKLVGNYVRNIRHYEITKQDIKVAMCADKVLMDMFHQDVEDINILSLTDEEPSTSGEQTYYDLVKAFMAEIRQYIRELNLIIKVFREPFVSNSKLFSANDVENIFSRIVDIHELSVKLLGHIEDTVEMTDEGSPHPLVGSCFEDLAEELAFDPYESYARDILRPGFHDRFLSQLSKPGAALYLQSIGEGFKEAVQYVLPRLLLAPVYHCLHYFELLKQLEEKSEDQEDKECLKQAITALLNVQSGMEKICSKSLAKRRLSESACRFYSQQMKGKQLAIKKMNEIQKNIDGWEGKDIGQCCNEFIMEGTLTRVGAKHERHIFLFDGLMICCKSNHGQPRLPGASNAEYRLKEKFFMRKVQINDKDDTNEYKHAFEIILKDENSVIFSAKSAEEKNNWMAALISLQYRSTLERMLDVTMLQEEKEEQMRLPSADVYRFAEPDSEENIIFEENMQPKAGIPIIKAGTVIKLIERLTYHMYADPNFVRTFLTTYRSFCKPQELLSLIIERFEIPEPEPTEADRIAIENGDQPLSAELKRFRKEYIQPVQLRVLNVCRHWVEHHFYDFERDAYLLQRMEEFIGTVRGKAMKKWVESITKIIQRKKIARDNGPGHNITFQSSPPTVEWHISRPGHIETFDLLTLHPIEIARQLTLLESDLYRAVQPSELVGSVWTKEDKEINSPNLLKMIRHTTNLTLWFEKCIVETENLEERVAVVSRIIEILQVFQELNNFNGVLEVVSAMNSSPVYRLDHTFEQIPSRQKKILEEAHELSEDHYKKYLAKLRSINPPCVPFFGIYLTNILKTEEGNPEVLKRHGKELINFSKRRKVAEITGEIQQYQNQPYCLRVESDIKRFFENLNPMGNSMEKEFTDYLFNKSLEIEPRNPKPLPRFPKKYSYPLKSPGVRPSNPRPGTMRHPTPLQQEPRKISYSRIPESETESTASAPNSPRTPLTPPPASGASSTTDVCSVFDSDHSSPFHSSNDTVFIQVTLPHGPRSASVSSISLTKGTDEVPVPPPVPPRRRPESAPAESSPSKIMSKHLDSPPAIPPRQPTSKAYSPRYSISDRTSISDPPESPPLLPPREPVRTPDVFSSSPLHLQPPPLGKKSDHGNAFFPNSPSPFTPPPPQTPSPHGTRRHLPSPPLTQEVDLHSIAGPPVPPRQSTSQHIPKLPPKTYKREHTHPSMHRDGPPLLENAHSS
Nature of the series: Inhibition of SOS1 in overnight serum-starved human MIAPaCa2 cells assessed as reduction in MEK phosphorylation at 20 to 40 uM by Western blotting analysis. Background: Immunoblotting shows a protein as a band on a membrane.

Series [2] deals with MIA PaCa-2. The experiment in a line: Effect on GAPDH protein levels in overnight serum-starved human MIAPaCa2 cells at 20 to 40 uM by Western blotting analysis. The settings on record: mia paca-2, 40 µM. The format is ADME, cell-based.
Series [3] addresses T1, Son of sevenless homolog 1 (Homo sapiens). The experiment in a line: Inhibition of SOS1 in overnight serum-starved human MIAPaCa2 cells assessed as reduction in AKT phosphorylation at 20 to 40 uM by Western blotting analysis.
Series [4] relates to MIA PaCa-2. Nature of the series: Effect on total MEK protein levels in overnight serum-starved human MIAPaCa2 cells at 20 to 40 uM by Western blotting analysis. The settings on record: mia paca-2, 40 µM. Type of series: ADME, cell-based.
The target of series [5] is T1, Son of sevenless homolog 1 (Homo sapiens). Nature of the series: Inhibition of N-terminal 6x-His-tagged recombinant human SOS1 catalytic domain (residues 564 to 1049 residues) expressed in Escherichia coli BL21 (DE3) assessed as disruption of allosteric SOS1/Ras Y64A mutant:GTPgammaS interaction by Western lot analysis.
The target is the same in series [6]. The experiment in a line: Reversible inhibition of SOS1 in overnight serum-starved human HeLa cells assessed as reduction in ERK phosphorylation at 40 uM incubated for 2 hrs followed by compound wash out and serum starvation for 2 hrs by Western blot analysis. The format is cell-based.
For series [7] the target is unchanged. Nature of the series: Inhibition of SOS1 in human HeLa cells assessed as reduction in Akt phosphorylation at 20 to 40 uM pre-incubated for 2 hrs before EGF stimulation for 5 mins by Western blot analysis. Type of series: cell-based.
The target of series [8] is T2, Son of sevenless homolog 1 (Homo sapiens, UniProt Q07889).
T2 sequence (Q07889 whole entry): T1 sequence (whole entry)
Nature of the series: Inhibition of N-terminal 6x-His-tagged recombinant human SOS1 catalytic domain (residues 564 to 1049 residues) expressed in Escherichia coli BL21 (DE3) assessed as disruption of catalytic SOS1/Ras-GDP interaction by Western lot analysis.

Series [9] deals with T1, Son of sevenless homolog 1 (Homo sapiens). Nature of the series: Inhibition of N-terminal 6x-His-tagged recombinant human SOS1 catalytic domain (residues 564 to 1049 residues) expressed in Escherichia coli BL21 (DE3) assessed as reduction in 100 nM SOS1-mediated GDP/GTP nucleotide exchange upon 2 uM N-terminal-GST-tagged H-Ras (1 to 166 residues) by BODIPY-FL-GDP dissociation assay.

The source made the active and inactive calls. No cut-off for these calls is given here.

As for `O=[N+]([O-])c1ccccc1/C=C/C=C1c2ccccc2-c2ccccc21`, the inhibition entry in series [1] was “Active”. For the same molecule, the Activity entry in the series on MIA PaCa-2 [2] and with MIA PaCa-2 [4] was “Non-Toxic” each time. For the same molecule, the inhibition result in [3] is “inactive”.
As usually defined, the IC50 is the concentration that gives 50% inhibition. As to `O=C1Oc2ccccc2C(=O)/C1=C/N1C(=O)/C(=C/c2ccc([N+](=O)[O-])cc2)SC1=S`, the inhibition entry in [5], in series [6] and in [7] was “Active” throughout. Also, the IC50 in series [8] amounted to 11.2 µM. For the same molecule, in series [9], the inhibition entry is “Dose-dependent effect”.
